Data as given in publication PMC12589998, “Development and validation of a UHPLC-QqQ-MS/MS method for simultaneous determination of fifteen major components from Oroxyli seed extract in rat plasma and its application in the pharmacokinetic study” (Frontiers in Pharmacology, 2025).
Like-named read-outs stand apart in the source and are kept apart here.

Legend:
[1] = Stability of the analytes in rat plasma samples under storage conditions; format: physicochemical; conditions: n = 6
Method: The bioanalytical method validation was evaluated for specificity, linearity, sensitivity, precision and accuracy, recovery, matrix effect, and stability to ensure compliance with the U.S. Food and Drug Administration (FDA) guidance on precise quantitative analysis ([Center for Drug Evaluation and Research of the U.S., 2018]). The assessment of specificity was conducted by comparing the chromatograms obtained from blank plasma, blank plasma spiked with the target components, and samples gathered following the oral administration of OS extract. Calibration curves were constructed by plotting the ratio for the peak area of the analyte to IS versus the concentration, with 1/x^2 serving as the weighting factor. The lower limit of quantification (LLOQ) was defined as the concentration at which a signal to noise ratio of […] 10 was achievable. The evaluation of precision and accuracy involved the analysis of six QC samples, both within a single day and over 3 consecutive days. Accuracy was expressed as the relative error (RE), whereas precision was gauged via relative standard deviation (RSD). Extraction recovery was ascertained by juxtaposing the responses of analytes in extracted samples against those in samples that were spiked post-extraction. The matrix effect was scrutinized by determining the ratio of the responses of the analytes in post-extraction spiked samples to those in the mixed standard solution. The stability of the analytes in plasma samples was explored under diverse conditions: encompassing a 12-h period in an autosampler, a 4-h interval at room temperature, three cycles of freezing–thawing, and a 7-day duration at −80 °C.
The retention times of the analyte peaks were consistent with those in the spiked samples. […] The LLOQs for chrysin, chrysin-7-O-β-D-glucuronide, hispidulin, wogonoside, quercetin, quercetin-7-O-β-D-glucoside, baicalin, baicalein, acacetin, oroxin A, oroxin B, oroxylin A, oroxylin A-7-O-β-D-glucuronide, apigenin, and scutellarein were 1.0, 2.0, 1.0, 0.3, 1.0, 0.1, 9.0, 6.0, 0.3, 6.0, 4.0, 1.0, 2.0, 0.5, and 0.3 ng/mL, respectively. In Supplementary Table S2, the RE for accuracy is between −13.77% and 12.55%, and the RSD for precision is below 14.55% (both intra- and inter-day). […] The matrix effect varied from 60.15% to 115.53%, with RSD values below 10.54%. In Supplementary Table S4, the RSD values for stability of the analytes are found to be lower than 13.98%, meaning that these components were stable under the following conditions: encompassing a 12-h period in an autosampler, a 4-h interval at room temperature, three cycles of freezing and thawing, and a 7-day duration at −80 °C.

[2] = Pharmacokinetic study in rats after oral administration of OS extract (UHPLC-QqQ-MS/MS of plasma); format: in vivo, rat; conditions: for concentration at 0.5 h: SD
Method: The UHPLC-QqQ-MS/MS system consisted of a 1290 UHPLC and a 6470 mass spectrometer (Agilent Technologies). Chromatographic separation was realized on utilizing an ACQUITY UPLC BEH C18 column (2.1 × 100 mm, 1.7 μm) maintained at 35 °C. The mobile phase consisting of 0.1% formic acid in water (A) and acetonitrile (B) was utilized with the elution program set at 0 min–1 min, 5% B–30% B; 1 min–4 min, 30% B– 50% B; 4 min–8 min, and 50% B–90% B. The injection volume was 5 μL, and the flow rate was 0.3 mL/min. The mass spectrometry parameters in the negative ion mode, gas temperature, flow rate, and nebulizer pressure were 300 °C, 7 L/min, and 35 psi, respectively. The mass spectra properties of the 15 analytes and the IS are illustrated in Table 1.
To 100 μL of the plasma sample, 20 μL of methanol, 20 μL of IS solution (methylparaben, 1 μg/mL), and 5 μL of formic acid were added and vortexed for a duration of 2 min. Subsequently, the mixture underwent extraction with 800 μL of acetonitrile for 3 min. Following 10 min of centrifugation at 12,000 g, the supernatant was collected and evaporated to dryness under N2 to obtain the residue. Finally, the residue was reconstituted in 50% methanol (100 μL) and utilized for analysis.
Before initiating the study, six male SD rats underwent a 12-h fasting period, during which they were granted unrestricted access to water. Then, the rats were administered an oral dose of 3 g/kg of the OS extract, which had been dissolved in 0.5% CMC-Na aqueous solution. Blood samples, approximately 200 μL each, were collected at various time points: before administration and at 0.03, 0.08, 0.17, 0.25, 0.5, 0.75, 1, 2, 4, 6, 8, 10, 12, 24, 36, and 48 h post-administration. Following 10 min of centrifugation at 6,000 g, the resultant samples were stored at −80 °C.
The developed method was effectively applied to study the pharmacokinetics in rats following oral administration of the OS extract. […] This was likely due to their low concentrations in the OS extract. Ultimately, nine components (chrysin, chrysin-7-O-β-D-glucuronide, baicalin, baicalein, oroxin A, oroxin B, oroxylin A, oroxylin A-7-O-β-D-glucuronide, and scutellarein) were successfully fitted with pharmacokinetic parameters. The average plasma concentration–time profiles of these substances are depicted in Figure 3. […] All data were presented as the mean ± standard deviation (Mean ± SD).

[3] = male, 3 g/kg, rat plasma collected 0.5 h after oral administration of the OS extract, read-out: Concentration printed in MRM chromatogram of plasma sample (Figure 2C)

Row | Measured, -80°C for 7 days ([1]; spiked concentration 2 ng/mL) [ng/mL] | Measured, Autosampler for 12 h ([1]; spiked concentration 2 ng/mL) [ng/mL] | Measured, Room temperature for 4 h ([1]; spiked concentration 2 ng/mL) [ng/mL] | Measured, Three freeze-thaw cycles ([1]; spiked concentration 2 ng/mL) [ng/mL] | Measured, -80°C for 7 days ([1]; spiked concentration 20 ng/mL) [ng/mL] | Measured, Autosampler for 12 h ([1]; spiked concentration 20 ng/mL) [ng/mL] | Measured, Room temperature for 4 h ([1]; spiked concentration 20 ng/mL) [ng/mL] | Measured, Three freeze-thaw cycles ([1]; spiked concentration 20 ng/mL) [ng/mL] | Measured, -80°C for 7 days ([1]; spiked concentration 320 ng/mL) [ng/mL] | Measured, Autosampler for 12 h ([1]; spiked concentration 320 ng/mL) [ng/mL] | Measured, Room temperature for 4 h ([1]; spiked concentration 320 ng/mL) [ng/mL] | Measured, Three freeze-thaw cycles ([1]; spiked concentration 320 ng/mL) [ng/mL] | concentration at 0.5 h [2, 3] [ng/mL] | SMILES | other results
1 | 1.77 ± 0.12 | 2.05 ± 0.22 | 1.84 ± 0.17 | 1.78 ± 0.13 | 19.80 ± 0.92 | 19.68 ± 1.68 | 18.12 ± 0.51 | 21.33 ± 0.83 | 296.10 ± 18.07 | 327.40 ± 16.47 | 316.24 ± 35.36 | 292.73 ± 17.80 | 14 | O=c1cc(-c2ccc(O)cc2)oc2cc(O)c(O)c(O)c12 [Scutellarein, scutellarein] | AUC(0-t) ([2]; male, rat plasma, oral 3 g/kg OS extract, n = 6, mean ± SD, read-out: AUC(0-t)): 89.4 ± 18.5 ng·h/mL; AUC(0-inf) ([2]; male, rat plasma, oral 3 g/kg OS extract, n = 6, mean ± SD, read-out: AUC(0-∞)): 95.6 ± 17.5 ng·h/mL; Cmax ([2]; male, rat plasma, oral 3 g/kg OS extract, n = 6, mean ± SD, read-out: Cmax): 47.8 ± 15.1 ng/mL; half-life ([2]; male, rat plasma, oral 3 g/kg OS extract, n = 6, mean ± SD, read-out: T1/2 (converted)): 4.07 ± 1.61 h; Tmax ([2]; male, rat plasma, oral 3 g/kg OS extract, n = 6, mean ± SD, read-out: Tmax): 6 ± 2.4 min
2 | 1.93 ± 0.09 | 2.00 ± 0.16 | 2.23 ± 0.11 | 2.07 ± 0.13 | 20.16 ± 2.35 | 20.39 ± 1.55 | 18.37 ± 0.87 | 18.24 ± 1.16 | 288.58 ± 21.30 | 316.15 ± 18.09 | 310.13 ± 19.51 | 306.45 ± 18.15 |  | O=c1cc(-c2ccc(O)cc2)oc2cc(O)cc(O)c12 [Apigenin, apigenin] | concentration at 0.5 h ([2]; male, rat, in vivo, po): 45 ng/mL; Plasma levels ([2]; rat, in vivo, po): too weak to obtain comprehensive pharmacokinetic curves
3 | 1.78 ± 0.17 | 2.07 ± 0.26 | 1.82 ± 0.14 | 1.86 ± 0.09 | 22.33 ± 0.89 | 22.77 ± 1.13 | 19.87 ± 0.76 | 18.01 ± 1.31 | 287.53 ± 32.71 | 307.85 ± 37.80 | 327.84 ± 23.82 | 310.87 ± 20.44 | 11 | COc1c(O[C@@H]2O[C@H](C(=O)O)[C@@H](O)[C@H](O)[C@H]2O)cc(O)c2c(=O)cc(-c3ccccc3)oc12 [Wogonoside, wogonoside] | Plasma levels ([2]; rat plasma after oral OS extract): too weak to obtain comprehensive pharmacokinetic curves
